Like-named read-outs stand apart in the source and are kept apart here.
Key:
Assay type in all cases: biochemical
beta-Catenin = target: T1, beta-Catenin (Homo sapiens, UniProt P35222); assay: beta-Catenin TR-FRET; conditions: read-out: Target #1 IC50
T1 sequence (P35222 1-781): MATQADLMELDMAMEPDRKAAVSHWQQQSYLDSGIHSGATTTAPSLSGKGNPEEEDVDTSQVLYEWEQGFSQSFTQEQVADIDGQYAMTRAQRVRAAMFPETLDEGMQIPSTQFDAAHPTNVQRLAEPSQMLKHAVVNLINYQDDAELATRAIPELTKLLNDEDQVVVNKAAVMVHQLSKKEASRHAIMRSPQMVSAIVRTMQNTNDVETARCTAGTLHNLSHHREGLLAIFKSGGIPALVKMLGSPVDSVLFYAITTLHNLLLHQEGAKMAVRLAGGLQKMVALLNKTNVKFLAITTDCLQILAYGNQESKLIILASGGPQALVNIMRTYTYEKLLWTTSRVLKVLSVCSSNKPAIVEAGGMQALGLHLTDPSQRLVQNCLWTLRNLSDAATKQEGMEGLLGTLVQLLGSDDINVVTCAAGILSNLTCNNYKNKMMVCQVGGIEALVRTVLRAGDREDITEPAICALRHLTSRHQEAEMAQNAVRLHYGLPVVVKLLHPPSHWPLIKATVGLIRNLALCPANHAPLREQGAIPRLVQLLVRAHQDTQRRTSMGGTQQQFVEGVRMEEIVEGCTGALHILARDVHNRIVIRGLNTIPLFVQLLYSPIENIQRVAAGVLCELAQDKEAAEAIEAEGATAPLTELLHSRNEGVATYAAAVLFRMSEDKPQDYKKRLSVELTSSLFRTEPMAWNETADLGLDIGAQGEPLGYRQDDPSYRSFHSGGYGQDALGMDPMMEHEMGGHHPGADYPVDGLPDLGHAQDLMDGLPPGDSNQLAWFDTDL
Procedure: (§1) Metal salt solutions for the metal ion interference set (MIIS) were prepared as 10 mM stock solutions in DMSO (see Table 3). All metal salts used have been purchased at highest industrial grade.

KRAS GTP = KRAS GTP (Homo sapiens, UniProt P01116, G12D); assay: KRAS AlphaScreen, Target #2
Procedure: as §1

BCL6 = BCL6 (Homo sapiens, UniProt P41182); assay: BCL6 Fluorescence Polarization; conditions: read-out: Target #1 IC50
Procedure: as §1

off target = assay: MDM2 AlphaScreen, Target #3
Procedure: as §1

KRAS = KRAS (Homo sapiens, UniProt P01116); assay: KRAS TR-FRET (MIIS list); conditions: read-out: Target #1 IC50
Procedure: as §1

MDM2 = MDM2 (Homo sapiens, UniProt Q00987); assay: MDM2 AlphaScreen, Target #1
Procedure: as §1

SOS1 = target: T2, SOS1 (Homo sapiens, UniProt Q07889); assay: SOS1 TR-FRET; conditions: read-out: Target #1 IC50
T2 sequence (Q07889 1-1333): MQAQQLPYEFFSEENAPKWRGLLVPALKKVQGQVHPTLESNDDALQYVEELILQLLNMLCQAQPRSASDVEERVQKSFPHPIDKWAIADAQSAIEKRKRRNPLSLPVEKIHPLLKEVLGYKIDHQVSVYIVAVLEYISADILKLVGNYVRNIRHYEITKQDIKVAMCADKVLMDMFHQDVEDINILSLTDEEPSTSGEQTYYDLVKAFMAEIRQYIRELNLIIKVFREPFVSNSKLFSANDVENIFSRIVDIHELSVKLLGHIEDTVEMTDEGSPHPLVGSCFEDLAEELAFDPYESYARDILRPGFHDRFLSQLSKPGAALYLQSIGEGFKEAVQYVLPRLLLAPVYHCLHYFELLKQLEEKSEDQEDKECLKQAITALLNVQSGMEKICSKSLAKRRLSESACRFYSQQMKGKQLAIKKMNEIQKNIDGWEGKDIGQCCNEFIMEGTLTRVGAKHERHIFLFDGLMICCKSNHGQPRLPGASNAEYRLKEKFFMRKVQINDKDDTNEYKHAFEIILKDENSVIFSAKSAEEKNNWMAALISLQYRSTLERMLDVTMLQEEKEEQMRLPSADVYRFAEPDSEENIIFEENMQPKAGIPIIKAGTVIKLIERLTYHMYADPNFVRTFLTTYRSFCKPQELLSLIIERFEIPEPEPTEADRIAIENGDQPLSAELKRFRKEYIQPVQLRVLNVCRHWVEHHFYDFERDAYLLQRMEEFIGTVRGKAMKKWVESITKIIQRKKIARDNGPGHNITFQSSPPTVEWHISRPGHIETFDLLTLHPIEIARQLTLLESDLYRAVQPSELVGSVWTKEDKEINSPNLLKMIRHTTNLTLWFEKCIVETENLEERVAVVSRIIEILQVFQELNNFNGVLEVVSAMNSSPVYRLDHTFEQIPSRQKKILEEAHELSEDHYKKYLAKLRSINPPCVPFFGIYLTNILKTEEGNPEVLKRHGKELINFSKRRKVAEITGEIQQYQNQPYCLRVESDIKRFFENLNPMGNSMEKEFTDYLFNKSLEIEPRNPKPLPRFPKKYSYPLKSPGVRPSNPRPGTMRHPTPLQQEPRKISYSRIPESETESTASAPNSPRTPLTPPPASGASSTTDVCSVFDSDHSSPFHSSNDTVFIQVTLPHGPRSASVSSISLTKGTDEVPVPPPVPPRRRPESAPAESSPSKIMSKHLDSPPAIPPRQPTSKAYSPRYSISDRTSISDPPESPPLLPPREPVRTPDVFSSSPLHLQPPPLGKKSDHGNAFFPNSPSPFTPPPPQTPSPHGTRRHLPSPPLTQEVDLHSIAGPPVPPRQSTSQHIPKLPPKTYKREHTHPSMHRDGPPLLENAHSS
Procedure: as §1

off-target = assay: UPA-UPAR AlphaScreen, Target #2
Procedure: as §1

KRAS^G12D(GTP)::CRAF = target: T3, KRAS^G12D(GTP)::CRAF (Homo sapiens, UniProt P01116, G12D); assay: KRAS^G12D(GTP)::CRAF TR-FRET; conditions: Fluorescence; GST-CRAF^(51–131) and KRAS^G12D(1–169)-biotin
T3 construct: KRAS^G12D 1–169, N-terminal 6His-tag, C-terminal avi-tag (Xtal BioStructures, Inc.); 6His (N); purchased Xtal BioStructures, Inc. (KRAS); Viva Biotech Ltd. (CRAF)
Procedure: Plates were kept at room temperature in a darkened incubator.
IC50 values were calculated and analyzed with Boehringer Ingelheim’s MEGALAB IC50 application using a 4 parametric logistic model.

biotinylated GST = biotinylated GST (Schistosoma japonicum, UniProt P08515); assay: Control assay (AlphaScreen Shortcut)
Procedure: This assay was developed to identify compounds that interfere with the assay format using AlphaLISA Glutathione Acceptor and AlphaScreen Streptavidin Donor beads. The assay was performed as described above using biotinylated GST as bridging reagent instead of KRAS^G12D and CRAF mix.

Chain of KRAS GTP (P01116 1-169 isoform P01116-2 G12D): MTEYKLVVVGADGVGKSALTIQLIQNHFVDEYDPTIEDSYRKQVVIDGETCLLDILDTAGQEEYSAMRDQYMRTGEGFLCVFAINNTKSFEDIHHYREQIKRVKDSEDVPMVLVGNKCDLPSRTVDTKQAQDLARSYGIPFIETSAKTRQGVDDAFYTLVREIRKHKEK
Chain of MDM2 (Q00987 whole entry, species assumed): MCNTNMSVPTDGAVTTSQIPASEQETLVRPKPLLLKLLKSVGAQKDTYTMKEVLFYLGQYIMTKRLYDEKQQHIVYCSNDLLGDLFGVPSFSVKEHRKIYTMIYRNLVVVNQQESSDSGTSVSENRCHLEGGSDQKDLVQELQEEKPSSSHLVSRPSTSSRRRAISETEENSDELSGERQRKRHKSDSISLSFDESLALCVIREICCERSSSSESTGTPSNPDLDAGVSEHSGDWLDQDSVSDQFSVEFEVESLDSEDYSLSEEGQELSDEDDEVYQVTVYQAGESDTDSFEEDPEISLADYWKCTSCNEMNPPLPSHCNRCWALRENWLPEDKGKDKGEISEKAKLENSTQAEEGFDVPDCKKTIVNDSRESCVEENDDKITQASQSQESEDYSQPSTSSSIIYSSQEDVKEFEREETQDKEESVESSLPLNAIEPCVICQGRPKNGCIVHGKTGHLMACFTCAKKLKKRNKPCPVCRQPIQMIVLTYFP
Chain of biotinylated GST (P08515 whole entry): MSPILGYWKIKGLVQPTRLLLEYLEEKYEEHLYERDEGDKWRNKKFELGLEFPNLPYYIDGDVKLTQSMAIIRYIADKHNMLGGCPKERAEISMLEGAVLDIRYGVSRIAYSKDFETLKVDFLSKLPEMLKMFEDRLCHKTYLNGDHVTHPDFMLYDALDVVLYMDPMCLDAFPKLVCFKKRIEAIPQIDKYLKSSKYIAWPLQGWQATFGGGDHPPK
Chain of KRAS (P01116 1-188 isoform P01116-2): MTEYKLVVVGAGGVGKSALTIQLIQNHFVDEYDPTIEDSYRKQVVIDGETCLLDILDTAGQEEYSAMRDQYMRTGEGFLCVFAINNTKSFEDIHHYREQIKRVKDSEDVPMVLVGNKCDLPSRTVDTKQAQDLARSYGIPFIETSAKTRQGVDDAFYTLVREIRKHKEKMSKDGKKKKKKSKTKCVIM
T3 sequence (P01116 1-169 isoform P01116-2 G12D): as the sequence (P01116 1-169 isoform P01116-2 G12D) above

SMILES	IC50 (beta-Catenin)	IC50 (KRAS GTP)	IC50 (BCL6)	IC50 (off target)	IC50 (MDM2)	IC50 (SOS1)	IC50 (off-target)	IC50 (KRAS)	IC50 (KRAS^G12D(GTP)::CRAF)	IC50 (biotinylated GST; Batch 1, read-out: Control assay IC50)	IC50 (biotinylated GST; Luminescence, biotinylated GST, read-out: IC50, Control assay)
CC(=O)[O-].[Ag+] [Ag (CH 3COO), Silver acetate]	< 1 µM	> 10 µM	> 10 µM	> 10 µM	> 10 µM	< 1 µM	–	< 1 µM	–	–	–
O=[N+]([O-])[O-].O=[N+]([O-])[O-].O=[N+]([O-])[O-].[Al+3] [Al(NO3)3, Aluminum nitrate]	> 10 µM	> 10 µM	> 10 µM	> 10 µM	> 10 µM	> 10 µM	> 10 µM	–	–	–	–
[Cl-].[Cl-].[Co+2] [CoCl2, Cobalt(II) chloride]	> 10 µM	> 10 µM	> 10 µM	> 10 µM	> 10 µM	> 10 µM	> 10 µM	–	–	–	–
[Cl-].[Cl-].[Mg+2] [MgCl2, Magnesium chloride]	> 10 µM	1 to 10 µM	> 10 µM	> 10 µM	> 10 µM	> 10 µM	> 10 µM	–	–	–	–
[Cl][Ni][Cl] [NiCl2, Nickel(II) chloride]	> 10 µM	> 10 µM	> 10 µM	> 10 µM	> 10 µM	> 10 µM	> 10 µM	–	–	–	–
[Cl][Pd][Cl] [PdCl2, Palladium(II) chloride]	> 10 µM	< 1 µM	> 10 µM	> 10 µM	> 10 µM	1 to 10 µM	< 1 µM	–	40.5 ± 19.2 µM	5.8 ± 0.7 µM	5.8 ± 0.7 µM
[Cl][Sn][Cl] [SnCl2, Tin(II) chloride]	> 10 µM	1 to 10 µM	> 10 µM	> 10 µM	> 10 µM	1 to 10 µM	> 10 µM	–	–	–	–
[Cl-].[Cl-].[Zn+2] [ZnCl2, Zinc(II) chloride]	> 10 µM	> 10 µM	> 10 µM	> 10 µM	> 10 µM	> 10 µM	> 10 µM	–	–	–	–

Continued, in another order:

IC50 (beta-Catenin)	IC50 (KRAS GTP)	IC50 (BCL6)	IC50 (off target)	IC50 (MDM2)	IC50 (SOS1)	IC50 (off-target)	SMILES	IC50 (KRAS)	IC50 (KRAS^G12D(GTP)::CRAF)	IC50 (biotinylated GST; Batch 1, read-out: Control assay IC50)	IC50 (biotinylated GST; Luminescence, biotinylated GST, read-out: IC50, Control assay)
< 1 µM	1 to 10 µM	> 10 µM	> 10 µM	> 10 µM	< 1 µM	1 to 10 µM	[Cl][Au]([Cl])[Cl] [AuCl3, Gold(III) chloride]	< 1 µM	–	–	–
> 10 µM	> 10 µM	> 10 µM	> 10 µM	> 10 µM	> 10 µM	> 10 µM	[Cl][Cu][Cl] [CuCl2, Copper(II) chloride]	–	–	–	–
> 10 µM	1 to 10 µM	> 10 µM	> 10 µM	> 10 µM	1 to 10 µM	> 10 µM	[Cl][Fe][Cl] [FeCl2, Iron(II) chloride]	–	–	–	–
> 10 µM	1 to 10 µM	> 10 µM	> 10 µM	> 10 µM	1 to 10 µM	> 10 µM	[Cl][Fe]([Cl])[Cl] [FeCl3, Iron(III) chloride]	–	–	–	–
> 10 µM	> 10 µM	> 10 µM	> 10 µM	> 10 µM	> 10 µM	> 10 µM	[Cl][Mn][Cl] [MnCl2, Manganese(II) chloride]	–	–	–	–
